Measurements reported in paper PMC8126888 (RSC Medicinal Chemistry, 2020).
Read-outs that look alike come from different tables or passages of the source.

What was measured:
in vitro [1] = conditions: human, HepG2 cells
[2] = test system: Leishmania infantum MHOM/MA(BE)/67/ITMAP263 intracellular amastigotes; experiment: microbe, parasite or virus in culture; conditions: Macrophage, in Mus musculus
[3] = test system: Trypanosoma cruzi, Tulahuen CL2, beta-galactosidase strain; experiment: microbe, parasite or virus in culture; conditions: MRC5, read-out: T. cruzi Tulahuen C4 (LacZ) IC50
in vitro [4] = conditions: human
[5] = test system: primary peritoneal mouse macrophages (PMM); experiment: cells; conditions: Macrophage, read-out: PMM IC50
in vitro [6] = conditions: human, HFF-1 cells
in vitro [7] = conditions: mouse, microsomes, pH 7.4, MLM CLint, mouse liver microsomes
physchem = conditions: HPLC, Ascentis Express RP Amide column, pH 7.4, eLogD
in vitro [8] = conditions: human, microsomes, pH 7.4, HLM CLint, human liver microsomes
in vitro [9] = conditions: PAMPA
[10] = test system: primary peritoneal mouse macrophages (PMM); conditions: PMM IC50 / L. infantum IC50
in vitro [11] = conditions: PAMPA; remark: listed apart in the source
in vitro [12] = conditions: Swiss, mouse
[13] = read-out: L. Inf. pIC50, from L. infantum intracellular amastigote IC50 (converted)
[14] = read-out: L. infantum MHOM/MA(BE)/67/ITMAP263 intracellular amastigotes IC50, intracellular amastigotes
[15] = read-out: L. infantum MHOM/MA(BE)/67/ITMAP263 intracellular amastigotes IC50

Row | Structure (SMILES) | CC50 (in vitro [1]) [µM] | IC50 [2, 13] [µM] | IC50 [2, 14] [µM] | IC50 [3] [µM] | CC50 at 3 days (in vitro [4]) [µM] | IC50 [5] [µM] | CC50 (in vitro [6]) [µM] | microsomal CLint at 0.5 μM (in vitro [7]) [µL/min/mg] | chromatographic logD (physchem; experimental) | microsomal CLint at 0.5 μM (in vitro [8]) [µL/min/mg] | Papp (in vitro [9]) [×10⁻⁶ cm/s] | SI (vs PMM) [10] | IC50 [2, 15] [µM] | Papp (in vitro [11]) [×10⁻⁶ cm/s] | chromatographic logD (physchem) | IC50 (in vitro [12]) [µM]
1 | COc1ccc(C#N)cc1S(=O)(=O)N(Cc1ccc(F)cc1)Cc1ccc(C#N)cc1 [DNDI0003371171] | > 64 | 33.1 | 33.2 | 30.4 | > 64 | > 64 | > 64 |  |  |  |  |  |  |  |  | 
2 | Cn1cccc(S(=O)(=O)N(Cc2ccc(F)cc2)Cc2ccc(F)cc2)c1=O [DNDI0003371168] | > 64 | 20.4 | 20.5 | 24.5 | > 64 | > 64 | 62.5 | 629 | 3.8 | 222 | 18.3 |  |  |  |  | 
3 | COc1ccc(OC)c(S(=O)(=O)N(Cc2ccc(F)cc2)Cc2ncccn2)c1 [DNDI0003370419] | > 64 | 13.8 | 13.8 | 38.8 | > 64 | > 64 | 19.1 | 844 | 3.4 | 115 | 25.1 |  |  |  |  | 
4 | COc1ncccc1S(=O)(=O)N(Cc1ccc(F)cc1)Cc1ccc(F)cc1 [DNDI0003371169] | > 64 | 12.9 | 13 | 44.2 | > 64 | > 64 | > 64 | 1170 | 4.4 | 334 | 2.56 |  |  |  |  | 
5 | COc1ccc(OC)c(S(=O)(=O)N(Cc2ccc(F)cc2)Cc2oc(C)nc2C)c1 [DNDI0003370420] | > 64 | 2.34 | 2.34 | 24.9 | > 64 | > 64 | 1.24 | 2280 | 3.8 | 376 | 46.4 |  |  |  |  | 
6 | [2H]C([2H])([2H])Oc1ncccc1S(=O)(=O)N(Cc1ccc(F)cc1)Cc1ccc(F)cc1 [DNDI0003371166] | 18.9 | 32.4 | 32.1 | 20.8 | > 64 | > 64 | 41.8 | 123 | 3.5 | 14 | 4.95 |  |  |  |  | 
7 | COc1ccc(C#N)cc1S(=O)(=O)N(Cc1ccc(F)cc1)Cc1oc(C)nc1C [DNDI0003370421] | > 64 | 7.94 | 7.89 | 26.1 | 49.1 | > 64 | 1.91 | 721 | 3.7 | 392 | 14.8 |  |  |  |  | 
8 | CC[C@H](Cc1ccccc1)[S+]([O-])c1ccccc1OC (stereo partly drawn) [DNDI0003362001] |  | 52.5 |  | 31.5 | > 64 |  |  | 3620 |  | 390 |  | 1 | 52.5 | 9.42 | 3.7 | > 64
9 | CCN(Cc1ccccc1)S(=O)(=O)c1ccccc1OC(F)(F)F [DNDI0003364252] |  | 8.51 |  | 22.4 | > 64 |  |  | 2340 |  | 1180 |  | 8 | 8.47 | 1.18 | 4.5 | > 64
10 | O=S(=O)(c1cccnc1OC(F)F)N(Cc1ccc(F)cc1)Cc1ccc(F)cc1 [DNDI0003371167] | > 64 | 9.33 | 9.4 | 31.2 | > 64 | > 64 | > 64 | 3070 | 4.8 | 751 | 0.98 |  |  |  |  | 
11 | O=c1[nH]cccc1S(=O)(=O)N(Cc1ccc(F)cc1)Cc1ccc(F)cc1 [DNDI0003371165] | > 64 | > 64 | > 64 | 42.3 | > 64 | > 64 | 23.2 | 218 | 3.8 | 44 | 23.6 |  |  |  |  | 
12 | COc1ccc(OC)c(S(=O)(=O)N2CCC(c3ccccc3)CC2)c1 [DNDI0003370422] | 63.9 | > 64 | > 64 | 16.9 | > 64 | > 64 | 4.56 | 664 | 4.2 | 1610 | 6.45 |  |  |  |  | 
13 | CCN(Cc1ccccc1)S(=O)(=O)c1ccc(OC)cc1 [DNDI0003297130] |  | 11 |  | 18.5 | > 64 |  |  | 3010 |  | 676 |  | 6 | 11 | 7.68 | 3.9 | > 64
14 | COc1ccc(S(C)(=O)=O)cc1S(=O)(=O)N(Cc1ccc(F)cc1)Cc1ccc(F)cc1 [DNDI0003371164] | 41.7 | 1.29 | 1.28 | 22 | > 64 | > 64 | 24.3 |  |  | 296 | 2.57 |  |  |  |  | 
15 | CCC(Cc1ccccc1)[S+]([O-])c1nc(C)cc(C)c1C#N (stereo not drawn) [DNDI0003297458] |  | 47.9 |  | > 64 | > 64 |  |  | 1560 |  | 1230 |  | 1 | 47.6 | 13.4 | 3.2 | > 64
16 | COc1ccc(OC)c(S(=O)(=O)NCc2ccccc2)c1 [DNDI0003365408] |  | > 64 |  | > 64 | > 64 |  |  | 1250 |  | 126 |  | 1 | > 64 | 16.8 | 2.8 | > 64
17 | COc1ccc(OC)c(S(=O)(=O)N(Cc2ccc(F)cc2)c2ccc(F)cc2)c1 [DNDI0003371170] | 23.3 | 11.2 | 11.3 | 15.1 | > 64 | > 64 | 30.7 | 703 |  | 417 | 1.83 |  |  |  |  | 
18 | COCCN(Cc1ccccc1)S(=O)(=O)c1ccccc1 [DNDI0003363821] |  | 40.7 |  | 39.3 | > 64 |  |  | 2990 |  | 239 |  | 2 | 40.5 | 25.3 | 3.5 | > 64
19 | CCN(Cc1ccccc1)S(=O)(=O)c1ccccc1 [DNDI0003363563] |  | > 64 |  | 32.1 | > 64 |  |  | 1180 |  | 418 |  | 1 | > 64 | 7.54 | 3.8 | > 64
20 | Nc1ncccc1S(=O)(=O)N(Cc1ccc(F)cc1)Cc1ccc(F)cc1 [DNDI0003371163] | > 64 | > 64 | > 64 | 42 | > 64 | > 64 | 52.2 | 447 | 4.2 | 164 | 2.18 |  |  |  |  | 
21 | CCN(Cc1ccccc1)S(=O)(=O)c1ccccc1C#N [DNDI0002574585] |  | 25.7 |  | 29.3 | > 64 |  |  | 1060 |  | 306 |  | 2 | 25.6 | 16.6 | 3.5 | > 64
22 | CNc1ncccc1S(=O)(=O)N(Cc1ccc(F)cc1)Cc1ccc(F)cc1 [DNDI0003371162] | 16.9 | 3.55 | 3.54 | 14.5 | > 64 | > 64 | > 64 | 984 | 4.5 | 401 | 1.61 |  |  |  |  | 
23 | CCN(Cc1ccccc1)S(=O)(=O)c1cc(Cl)ccc1OC [DNDI0003364251] |  | 5.5 |  | 9.1 | 53.2 |  |  | 1260 |  | 304 |  | 12 | 5.52 | 3.74 | 4.3 | > 64
